Reference: patent publication US9422290B2, “Triazolopyridazine” (Boehringer Ingelheim International GmbH, priority 2012, dated 2016)

Biological target: BRD4-BD1 (Homo sapiens (Human), UniProt O60885)
Assay: BRD4-H4 tetraacetylated peptide inhibition AlphaScreen
Format: binding
Conditions: 15 nM GST-BRD4-BD1 (aa 44-168), 15 nM biotinylated Acetyl-Histone H4 (Lys5, 8, 12, 16) peptide
Description: Compounds are diluted in serial dilution 1:5 in assay buffer from 10 mM stock in DMSO (100 μM start concentration) in white OptiPlate-384 (PerkinElmer). […] Subsequently, 6 μl of premixed AlphaLISA Glutathione Acceptor Beads and AlphaScreen Streptavidin Donor Beads from PerkinElmer (in assay buffer at a concentration of 10 μg/ml each) are added and the samples are incubated for 30 min at RT in the dark (shaking 300 rpm). Afterwards, the signal is measured in a PerkinElmer Envision HTS Multilabel Reader using the AlphaScreen protocol from PerkinElmer. […] Negative control values are entered as low basis value when using the software GraphPad Prism for calculations. Furthermore, a positive control (probe molecule JQ1+ with protein/peptide mix) is pipetted. Determination of IC50 values are carried out using GraphPad Prism 3.03 software (or updates thereof).

| SMILES | IC50 |
| --- | --- |
| CNc1cc(N(C)Cc2ccccc2)nn2c(C)nnc12 [Example I-5] | 83 nM |
| CNc1cc(-c2cn(C)nc2Cc2ccccc2)nn2c(C)nnc12 [II-10] | 38 nM |
| CNc1cc(-c2cn(C)nc2Oc2ccccc2)nn2c(C)nnc12 [II-15] | 29 nM |
| Cc1nnc2c(NC3CCN(C)CC3)cc(-c3cnn(C)c3Cc3ccccc3)nn12 [II-1, [6-(5-Benzyl-1-methyl-1H-pyrazol-4-yl)-3-methyl-[1,2,4]triazolo[4,3-b]pyridazin-8-yl]-(1-methyl-piperidin-4-yl)-amine] | 10 nM |
| Cc1cc(-c2cn(C)nc2Cc2ccccc2)nn2c(C)nnc12 [II-11] | 64 nM |
| CSc1cc(-c2cn(C)nc2Cc2ccccc2)nn2c(C)nnc12 [II-13] | 2000 nM |
| Cc1nnc2c(NC(C)C)cc(-c3cnn(C)c3Oc3ccccc3)nn12 [II-17] | 140 nM |
| Cc1nnc2c(NC(C)C)cc(-c3cn(C(C)C)nc3Cc3ccccc3)nn12 [II-16] | 711 nM |
| Cc1nnc2c(NC3CCN(C)CC3)cc(-c3cnn(C)c3Oc3ccccc3)nn12 [II-7] | 8 nM |
| Cc1nnc2c(NC(C)C)cc(-c3cn(C)nc3Cc3ccccc3)nn12 [II-19] | 105 nM |
| Cc1nnc2c(NC(C)C)cc(-c3cn(C)nc3Oc3ccccc3)nn12 [II-18] | 31 nM |
| COCCN1CCC(Nc2cc(-c3cn(C)nc3Cc3ccccc3)nn3c(C)nnc23)CC1 [II-8] | 4 nM |
| Cc1nnc2c(NC3CCN(C)CC3)cc(N(C)Cc3ccccc3)nn12 [Example I-1, N6-Benzyl-3,N6-dimethyl-N8-(1-methyl-piperidin-4-yl)-[1,2,4]triazolo[4,3-b]pyridazine-6,8-diamine] | 3 nM |
| Cc1nnc2c(N[C@H]3CCOC3)cc(N(C)Cc3ccccc3)nn12 [Example I-3] | 67 nM |
| Cc1nnc2c(NC3CCN(C)CC3)cc(-c3[nH]c4ccccc4c3Cc3ccccc3)nn12 [II-3] | 3 nM |
| CCN1CCC(Nc2cc(N(C)Cc3ccccc3)nn3c(C)nnc23)CC1 [III-2, N6-Benzyl-N8-(1-ethyl-piperidin-4-yl)-3,N6-dimethyl-[1,2,4]triazolo[4,3-b]pyridazine-6,8-diamine] | 3 nM |
| COCCN1CCC(Nc2cc(-c3cnn(C)c3Oc3ccccc3)nn3c(C)nnc23)CC1 [II-6] | 8 nM |
| Cc1nnc2c(NC(C)C)cc(-c3cn(C)nc3Oc3ccccn3)nn12 [II-20] | 43 nM |
| CNc1cc(-c2cn(C)nc2Oc2ccccn2)nn2c(C)nnc12 [II-21] | 72 nM |
| CNc1cc(-c2cnn(C)c2Oc2ccccc2)nn2c(C)nnc12 [II-14] | 26 nM |
| Cc1nnc2c(NC3CCN(C)CC3)cc(-c3ccnn3Cc3ccccc3)nn12 [II-2] | 117 nM |
| Cc1nnc2c(NC3CCN(C)CC3)cc(-c3cc4ccccc4n3Cc3ccccc3)nn12 [II-5, [6-(1-Benzyl-1H-indol-2-yl)-3-methyl-[1,2,4]triazolo[4,3-b]pyridazin-8-yl]-(1-methyl-piperidin-4-yl)-amine] | 105 nM |
| Cc1nnc2c(NC3CCOCC3)cc(N(C)Cc3ccccc3)nn12 [Example I-2] | 83 nM |
| Cc1nnc2c(N[C@@H]3CCOC3)cc(N(C)Cc3ccccc3)nn12 [Example I-4] | 25 nM |
| Cc1nnc2c(Cl)cc(-c3cn(C)nc3Cc3ccccc3)nn12 [II-12, 3-benzyl-4-{8-chloro-3-methyl-[1,2,4]triazolo[4,3-b]pyridazin-6-yl}-1-methyl-1H-pyrazole] | 51 nM |
| Cc1nnc2c(NC3CCN(C)CC3)cc(-c3c(Cc4ccccc4)c4ccccc4n3C)nn12 [II-4] | 37 nM |
| Cc1nnc2c(NC3CCN(C)CC3)cc(-c3cn(C)nc3Cc3ccccc3)nn12 [II-9] | 3 nM |
| CNc1cc(N(C)Cc2ccc(F)cc2)nn2c(C)nnc12 [Example I-6] | 74 nM |

Results, then the compound that gave them:

| IC50 | SMILES |
| --- | --- |
| 40 nM | Cc1nnc2c(NC3CCN(S(=O)(=O)C4CCN(C)CC4)CC3)cc(N(C)Cc3ccccc3)nn12 [III-9] |
| 39 nM | Cc1nnc2c(NC3CCN(S(=O)(=O)CCN(C)C)CC3)cc(N(C)Cc3ccccc3)nn12 [III-11] |
| 40 nM | Cc1nnc2c(NC3CCN(C=O)CC3)cc(N(C)Cc3ccccc3)nn12 [III-4] |
| 44 nM | Cc1nnc2c(NC3CCN(S(=O)(=O)C4CCN(C)C4)CC3)cc(N(C)Cc3ccccc3)nn12 (centres unmarked) [III-10] |
| 57 nM | Cc1nnc2c(NC3CCN(S(=O)(=O)C4CCNCC4)CC3)cc(N(C)Cc3ccccc3)nn12 [III-7] |
| 37 nM | Cc1nnc2c(NC3CCN(S(=O)(=O)CCCN(C)C)CC3)cc(N(C)Cc3ccccc3)nn12 [III-5] |
| 33 nM | Cc1nnc2c(NC3CCN(S(=O)(=O)C4CCNC4)CC3)cc(N(C)Cc3ccccc3)nn12 (centres unmarked) [III-6] |
| 3 nM | COCCN1CCC(Nc2cc(N(C)Cc3ccccc3)nn3c(C)nnc23)CC1 [III-3, N6-Benzyl-N8-[1-(2-methoxy-ethyl)-piperidin-4-yl]-3,N6-dimethyl-[1,2,4]triazolo[4,3-b]pyridazine-6,8-diamine] |
| 32 nM | Cc1nnc2c(NC3CCN(S(=O)(=O)CCN)CC3)cc(N(C)Cc3ccccc3)nn12 [III-8] |
| 61 nM | CC(=O)N1CCC(Nc2cc(N(C)Cc3ccccc3)nn3c(C)nnc23)CC1 [III-1, 1-{4-[6-(Benzyl-methyl-amino)-3-methyl-[1,2,4]triazolo[4,3-b]pyridazin-8-ylamino]-piperidin-1-yl}-ethanone] |
